# Experimental data: patent US9234017B2, “Aquaporin-4 peptide compositions and methods of use thereof” (The Regents of the University of California, priority 2012, dated 2016)
# Read-outs that look alike come from different tables or passages of the source.
# How the values were obtained:
# Format in all cases: cell-based, human
# [1] = system: peripheral blood mononuclear cells (PBMC); assay: PBMC proliferation by [3H]thymidine incorporation, primary cultures; conditions: for proliferative responses of NMO patients to individual AQP4 peptides: peptides 10 μg/ml, 6 d, [3H]thymidine, FIG. 1B
# [2] = system: T cells from NMO patients; assay: T cell proliferation by CFSE dilution (cell division index); conditions: for proliferative T cell response to individual AQP4 peptides: NMO patients, CFSE dilution, peptides 10 μg/ml, 10 d, FIG. 1D
# [3] = system: T cells initially stimulated with AQP4 p63-76 or ABC-TP
# [4] = system: CD4+CFSElow proliferating T cells; assay: Intracellular IL-17 and IFN-γ staining of proliferating antigen-specific CD4+ T cells; conditions: for frequencies of IL-17+ single- and IL-17+IFN-γ+ double-positive (Th17) cells: NMO patients in comparison to HC, PMA/Ionomycin 5 h, FIG. 4A, B
# Experimental: (§1) Single-cell suspensions were incubated with human serum to prevent nonspecific antibody binding, then stained with anti-CD3, -CD4, -CD8, -CD25, -MHC Class II, -CD40, -CD80, and -CD86 (eBioscience and BD Bioscience). Intracellular cytokine production by CD4^+ T cells and APC was analyzed by monitoring the expression of IFN-γ, IL-17, IL-6, IL-1β and IL-10 (1:100) (eBioscience). Foxp3 staining was performed according to the manufacturer's protocol (eBioscience). For intracellular cytokine staining, T cells were stimulated with phorbol 12-myristate 13-acetate (PMA, 50 ng/ml) plus ionomycin (500 ng/ml) in the presence of GolgiStop (1 μl/ml) (BD Biosciences). CD14^+ cells were stimulated with LPS (1 μg/ml; Sigma-Aldrich) for 4 or 20 h in the presence of GolgiStop. Cells were analyzed by flow cytometry on a FACS Canto flow cytometer (BD Biosciences).
# FIG. 4A-4D. […] PBMC were stained with CFSE and cultured for 10 d with AQP4 peptides (10 μg/ml) or rhAQP4 (5 μg/ml). (Panel A) CD4^+CFSE^low proliferating T cells were analyzed for IL-17 and IFN-γ production by intracellular staining after stimulation with PMA/Ionomycin for 5 h. (Panel B) Frequencies of IL17^+IFN-γ^−, IL17^+IFN-γ^+ and IL17^−IFN-γ^+ were examined among proliferating p61-80-specific CD4^+ T cells (n=8 NMO and n=5 HC), p156-170-specific CD4^+ T cells (n=6 NMO and n=3 HC) and rhAQP4-specific CD4^+ T cells (n=6 NMO and n=5 HC). Frequencies of IL-17- and IFN-γ-single positive T cells were used to calculate Th17/Th1 ratio. (Panel C) PBMC were examined by FACS for expression of Treg markers including CD4, CD127 and CD25. (Panel D) CFSE-labeled PBMC were cultured for 10 d with AQP4 p61-80 (10 μg/ml) or rhAQP4 (5 μg/ml). Proliferating CD4^+ T cells (CDI>2) were examined by FACS for expression of CD25^high, defined as the top half of CD25^+ cells, and Foxp3 (n=8 NMO p61-80, n=6 HC p61-80, n=7 NMO rhAQP4 and n=5 HC rhAQP4). Box-and-whisker plots include the median, distribution and range. **P<0.01 Mann-Whitney U test.
# [5] = system: AQP4 p61-80-specific T cells; assay: Epitope mapping: recall proliferation of AQP4 p61-80-reactive T cells to truncated peptides; conditions: NMO patients, peptides 10 μg/ml, irradiated autologous APC, [3H]thymidine after 3 d, FIG. 3A, 3B
# [6] = system: T cells initially stimulated with rhAQP4; assay: Antigen recall proliferation after initial stimulation with rhAQP4
# [7] = system: proliferating CD4+ T cells; assay: Treg (CD25high Foxp3) frequency among proliferating antigen-specific CD4+ T cells; conditions: NMO patients versus HC, FIG. 4D
# Experimental: as §1
# FIG. 4A-4D. […] PBMC were stained with CFSE and cultured for 10 d with AQP4 peptides (10 μg/ml) or rhAQP4 (5 μg/ml). (Panel A) CD4^+CFSE^low proliferating T cells were analyzed for IL-17 and IFN-γ production by intracellular staining after stimulation with PMA/Ionomycin for 5 h. (Panel B) Frequencies of IL17^+IFN-γ^−, IL17^+IFN-γ^+ and IL17^−IFN-γ^+ were examined among proliferating p61-80-specific CD4^+ T cells (n=8 NMO and n=5 HC), p156-170-specific CD4^+ T cells (n=6 NMO and n=3 HC) and rhAQP4-specific CD4^+ T cells (n=6 NMO and n=5 HC). […]
# [8] = PBMC from 4 NMO patients, primed 10 d at 10 μg/ml, [3H]thymidine after 3 d, FIG. 3E
substance,measurement,setting,value
AGHGLLVELIITFQL (synthetic poypeptide) [p156-170],proliferative responses of NMO patients to individual AQP4 peptides,[1],T cell determinants were identified
same,proliferative T cell response to individual AQP4 peptides,[2],T cell responses were observed
same,recall proliferation of ABC-TP p204-217-primed T cells,[3]; [8],not observed
same,recall proliferation of AQP4 p63-76-primed T cells,[3]; [8],not observed
same,frequencies of IL-17+ single- and IL-17+IFN-γ+ double-positive (Th17) cells,[4],No Th17 bias
DMVLISLCFGLS (synthetic poypeptide) [p69-80],proliferation of AQP4 p61-80-specific T cells to truncated peptides,[5],less efficiently than p63-80
EKPLPVDMVLISLC (listed as Homo sapiens) [p63-76],proliferation of AQP4 p61-80-specific T cells to truncated peptides,[5],nearly as efficiently
same,recall proliferation of ABC-TP p204-217-primed T cells,[3]; [8],vice versa
FIILPVSMVLISLV [ABC-TP p204-217],proliferation of T cells from NMO patients,[2],proliferated significantly
same,recall proliferation of AQP4 p63-76-primed T cells,[3],proliferated
GILYLVTPPSVVGGLGVTMV (synthetic poypeptide) [p131-150],proliferative responses of NMO patients to individual AQP4 peptides,[1],T cell determinants were identified
GTEKPLPVDMVL (synthetic poypeptide) [p61-72],proliferation of AQP4 p61-80-specific T cells to truncated peptides,[5],not
GTEKPLPVDMVLIS (synthetic poypeptide) [p61-74],proliferation of AQP4 p61-80-specific T cells to truncated peptides,[5],not
GTEKPLPVDMVLISLC (synthetic poypeptide) [p61-76],proliferation of AQP4 p61-80-specific T cells to truncated peptides,[5],proliferated
GTEKPLPVDMVLISLCFG (synthetic poypeptide) [p61-78],proliferation of AQP4 p61-80-specific T cells to truncated peptides,[5],proliferated
PLPVDMVLISLCFGLS (synthetic poypeptide) [p65-80],proliferation of AQP4 p61-80-specific T cells to truncated peptides,[5],less efficiently than p63-80
PVDMVLISLCFGLS (synthetic poypeptide) [p67-80],proliferation of AQP4 p61-80-specific T cells to truncated peptides,[5],less efficiently than p63-80
RFKEAFSKAAQQTKGSYMEV (synthetic poypeptide) [p261-280],proliferative responses of NMO patients to individual AQP4 peptides,[1],not detected
same,proliferative T cell response to individual AQP4 peptides,[2],T cell responses were observed
SMNPARSFGPAVIMGNWENH (synthetic poypeptide) [p211-230],proliferative responses of NMO patients to individual AQP4 peptides,[1],T cell determinants were identified
"p11-30: synthetic overlapping AQP4 20-mer peptide, amino acids 11-30 of human AQP4 (GKCGPLCTRENIMVAFKGVW; UniProt P55087 11-30, looked up, fragment)",proliferative responses of NMO patients to individual AQP4 peptides,[1],not detected
same,proliferative T cell response to individual AQP4 peptides,[2],T cell responses were observed
"p21-40: synthetic overlapping AQP4 20-mer peptide, amino acids 21-40 of human AQP4 (NIMVAFKGVWTQAFWKAVTA; UniProt P55087 21-40, looked up, fragment)",proliferative responses of NMO patients to individual AQP4 peptides,[1],T cell determinants were identified
same,proliferative T cell response to individual AQP4 peptides,[2],T cell responses were observed
p61-80: peptide of amino acids position 61 to position 80 of human AQP-4 protein sequence (GTEKPLPVDMVLISLCFGLS),proliferative responses of NMO patients to individual AQP4 peptides,[1],T cell determinants were identified
same,proportion of CD4+ T cells that responded,"[2]; NMO patients versus HC, FIG. 1E",higher in NMO patients than HC
same,proliferative T cell response to individual AQP4 peptides,[2],robust proliferative T cell response
same,immunodominance among peptides examined,[6],clearly immunodominant
same,frequencies of IL-17+ single- and IL-17+IFN-γ+ double-positive (Th17) cells,[4],significantly higher frequencies
same,Th17/Th1 ratio,[4]; NMO patients versus HC,elevated
rhAQP4: Full length recombinant human AQP4 (1-323) expressed in Pichia pastoris,frequencies of IL-17+ single- and IL-17+IFN-γ+ double-positive (Th17) cells,[4],not significant
same,frequency of Treg among antigen-specific T cells,[7],significantly reduced frequency
"tetanus toxoid: Tetanus toxoid obtained from List Biological Laboratories, Inc. [reference compound]","response to tetanus toxoid, HC compared with NMO patients",[1]; lymphocytes from healthy controls,comparable responses
